IC50 data for 22 compounds are collected here from patent publication US11208400B2, “Substituted 6-(1H-pyrazol-1-yl)pyrimidin-4-amine derivatives and uses thereof” (Bayer Aktiengesellschaft, priority 2016, dated 2021).

For the experiment, the target named is T1, human Npt2a (Homo sapiens, UniProt Q06495).
T1 construct: expressed in transfected cells
T1 sequence (Q06495 1-639): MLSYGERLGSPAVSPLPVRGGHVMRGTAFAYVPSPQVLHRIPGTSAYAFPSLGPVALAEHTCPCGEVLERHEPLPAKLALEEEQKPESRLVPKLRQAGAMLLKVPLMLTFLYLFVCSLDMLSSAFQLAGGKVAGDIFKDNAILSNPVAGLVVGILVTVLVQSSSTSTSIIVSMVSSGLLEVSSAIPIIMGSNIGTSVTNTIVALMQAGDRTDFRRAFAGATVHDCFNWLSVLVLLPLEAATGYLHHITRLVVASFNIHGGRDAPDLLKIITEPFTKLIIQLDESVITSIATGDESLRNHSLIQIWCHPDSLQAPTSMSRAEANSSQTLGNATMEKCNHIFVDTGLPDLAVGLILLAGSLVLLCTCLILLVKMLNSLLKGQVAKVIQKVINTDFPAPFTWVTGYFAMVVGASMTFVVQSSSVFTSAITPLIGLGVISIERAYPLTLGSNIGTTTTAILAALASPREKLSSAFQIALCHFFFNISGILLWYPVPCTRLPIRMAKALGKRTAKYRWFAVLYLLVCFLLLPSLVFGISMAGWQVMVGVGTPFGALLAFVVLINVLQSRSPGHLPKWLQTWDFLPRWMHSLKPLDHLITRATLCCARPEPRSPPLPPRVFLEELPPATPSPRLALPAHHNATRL
Nature of the experiment: Npt2a activity cell based assay, membrane potential dye, CHO T-REx hNpt2a cells. Conditions: doxycycline-induced, depolarization by sodium phosphate influx, average or median values if tested more than once. An outline of the steps: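 Doxycycline-induced (0.5 μg/mL, 24 h) CHO T-REx cells were loaded with membrane potential dye in sodium-free NHE buffer (pH 7.4) and exposed to compound (50 μM–1 nM, 5 min, room temperature).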
Turning to `Cc1nn(-c2cc(Nc3nn(C)c(-c4ccc(F)cc4)c3OC(F)F)ncn2)c(C)c1C#N` [Example 471, 1-(6-{[4-(difluoromethoxy)-5-(4-fluorophenyl)-1-methyl-1H-pyrazol-3-yl]amino}pyrimidin-4-yl)-3,5-dimethyl-1H-pyrazole-4-carbonitrile], the half-maximal inhibitory concentration (IC50) (as a rule, the concentration that inhibits the measured activity by half) was determined as 7 nM.

The compound `COC(=O)Oc1c(C)nn(-c2cc(Nc3c(C)c(-c4ccc(F)cc4)nn3CC3CC3)ncn2)c1C` [Example 518, 1-(6-{[1-(cyclopropylmethyl)-3-(4-fluorophenyl)-4-methyl-1H-pyrazol-5-yl]amino}pyrimidin-4-yl)-3,5-dimethyl-1H-pyrazol-4-yl methyl carbonate] yielded an IC50 of 14 nM.

The compound `COc1c(-c2ccc(C#N)cc2)nn(C)c1Nc1cc(-n2nc(C)cc2C(F)F)ncn1` [Example 411, 4-[5-({6-[5-(difluoromethyl)-3-methyl-1H-pyrazol-1-yl]pyrimidin-4-yl}amino)-4-methoxy-1-methyl-1H-pyrazol-3-yl]benzonitrile] had an IC50 of 150 nM.

Compound `Cc1cc(C)n(-c2cc(Nc3c(C)c(-c4ccc(OC(F)(F)F)cc4)nn3CC3CC3)ncn2)n1` [Example 308, N-{1-(cyclopropylmethyl)-4-methyl-3-[4-(trifluoromethoxy)phenyl]-1H-pyrazol-5-yl}-6-(3,5-dimethyl-1H-pyrazol-1-yl)pyrimidin-4-amine] yielded an IC50 of 23 nM.

In turn, `CCOC(=O)c1c(C)nn(-c2cc(Nc3c(C)c(-c4ccc(F)cc4)nn3C)ncn2)c1C` [Example 59, ethyl 1-(6-{[3-(4-fluorophenyl)-1,4-dimethyl-1H-pyrazol-5-yl]amino}pyrimidin-4-yl)-3,5-dimethyl-1H-pyrazole-4-carboxylate] had an IC50 of 12 nM.

In the case of `CCc1c(Nc2cc(-n3nc(C)c4ccncc43)ncn2)nn(C)c1-c1ccc(F)cc1` [Example 168, N-[4-ethyl-5-(4-fluorophenyl)-1-methyl-1H-pyrazol-3-yl]-6-(3-methyl-1H-pyrazolo[3,4-c]pyridin-1-yl)pyrimidin-4-amine], half-maximal inhibition (IC50) was put at 15 nM.

In turn, `Cc1c(Nc2cc(-n3cc(C(F)(F)F)cn3)ncn2)nn(C)c1-c1ccc(F)cc1` [Example 424, N-[5-(4-fluorophenyl)-1,4-dimethyl-1H-pyrazol-3-yl]-6-[4-(trifluoromethyl)-1H-pyrazol-1-yl]pyrimidin-4-amine] yielded an IC50 of 370 nM.

The compound `COc1ccc(-c2nn(CC3CC3)c(Nc3cc(-n4nc(C)c(Cl)c4C)ncn3)c2C)cn1` [Example 498, 6-(4-chloro-3,5-dimethyl-1H-pyrazol-1-yl)-N-[1-(cyclopropylmethyl)-3-(6-methoxypyridin-3-yl)-4-methyl-1H-pyrazol-5-yl]pyrimidin-4-amine] had a concentration for half-maximal inhibition (IC50) of 1310 nM.

With `Cc1cc(C)n(-c2cc(Nc3nn(C)c(-c4ccc(F)cc4F)c3Cl)ncn2)n1` [Example 55, N-[4-chloro-5-(2,4-difluorophenyl)-1-methyl-1H-pyrazol-3-yl]-6-(3,5-dimethyl-1H-pyrazol-1-yl)pyrimidin-4-amine], inhibition was half-maximal at 133 nM (IC50).

The compound `Cc1cc(C)n(-c2cc(Nc3nn(C)c(-c4ccc(OC(F)(F)F)cc4)c3C)ncn2)n1` [Example 98, 6-(3,5-dimethyl-1H-pyrazol-1-yl)-N-{1,4-dimethyl-5-[4-(trifluoromethoxy)phenyl]-1H-pyrazol-3-yl}pyrimidin-4-amine] gave an IC50 of 51 nM.

On to `Cc1cc(C(F)F)n(-c2cc(Nc3c(C)c(-c4ccc(C(F)F)nc4)nn3C)ncn2)n1` [Example 481, 6-[5-(difluoromethyl)-3-methyl-1H-pyrazol-1-yl]-N-{3-[6-(difluoromethyl)pyridin-3-yl]-1,4-dimethyl-1H-pyrazol-5-yl}pyrimidin-4-amine], for which 1400 nM corresponded to half-maximal inhibition (IC50).

As to `Cc1nn(-c2cc(Nc3c(C)c(-c4ccc(F)cc4)nn3CC3CC3)ncn2)c2c1C(=O)CC2` [Example 394, 1-(6-{[1-(cyclopropylmethyl)-3-(4-fluorophenyl)-4-methyl-1H-pyrazol-5-yl]amino}pyrimidin-4-yl)-3-methyl-5,6-dihydrocyclopenta[c]pyrazol-4(1H)-one], the midpoint of inhibition, the IC50, lay at 71 nM.

For the compound `COc1c(-c2ccc(C#N)cc2)nn(CC2CC2)c1Nc1cc(-n2nc(C)c(C(C)OC)c2C)ncn1` (single isomer, unassigned) [Example 335], inhibition was half-maximal at 51 nM (IC50).

Compound `CCc1c(-c2ccc(F)cc2)nn(CC(F)F)c1Nc1cc(-n2nc(C)c(Cl)c2C(F)F)ncn1` [Example 179, 6-[4-chloro-5-(difluoromethyl)-3-methyl-1H-pyrazol-1-yl]-N-[1-(2,2-difluoroethyl)-4-ethyl-3-(4-fluorophenyl)-1H-pyrazol-5-yl]pyrimidin-4-amine] registered an IC50 of 170 nM.

Compound `Cc1nn(-c2cc(Nc3c(C)c(-c4ccc(F)cc4)nn3CC3CC3)ncn2)c2c1C(C)(O)CC2` (racemic) [Example 283, (±)-1-(6-{[1-(cyclopropylmethyl)-3-(4-fluorophenyl)-4-methyl-1H-pyrazol-5-yl]amino}pyrimidin-4-yl)-3,4-dimethyl-1,4,5,6-tetrahydrocyclopenta[c]pyrazol-4-ol (Racemate)] showed an IC50 of 21 nM.

In turn, `Cc1nn(-c2cc(Nc3c(Cl)c(-c4ccc(F)cc4)nn3CC3CC3)ncn2)c2cnccc12` [Example 218, N-[4-chloro-1-(cyclopropylmethyl)-3-(4-fluorophenyl)-1H-pyrazol-5-yl]-6-(3-methyl-1H-pyrazolo[3,4-c]pyridin-1-yl)pyrimidin-4-amine] registered an IC50 of 32 nM.

The compound `Cc1cc(C)n(-c2cc(Nc3n[nH]c(-c4ccc(F)cc4F)c3Cl)ncn2)n1` [Example 6, N-[4-chloro-5-(2,4-difluorophenyl)-1H-pyrazol-3-yl]-6-(3,5-dimethyl-1H-pyrazol-1-yl)pyrimidin-4-amine] returned an IC50 of 49 nM.

`CCc1c(Nc2cc(-n3nc4c(c3O)CCCC4)ncn2)n[nH]c1-c1ccc(F)cc1` [Example 30, 2-(6-{[4-ethyl-5-(4-fluorophenyl)-1H-pyrazol-3-yl]amino}pyrimidin-4-yl)-4,5,6,7-tetrahydro-2H-indazol-3-ol]: it took 620 nM to reach half-maximal inhibition (IC50).

The compound `Cc1nn(-c2cc(Nc3nn(CC4CC4)c(-c4ccc(F)cc4)c3Cl)ncn2)c2cnccc12` [Example 207, N-[4-chloro-1-(cyclopropylmethyl)-5-(4-fluorophenyl)-1H-pyrazol-3-yl]-6-(3-methyl-1H-pyrazolo[3,4-c]pyridin-1-yl)pyrimidin-4-amine] returned a half-maximal inhibitory concentration (IC50) of 18 nM.

Turning to `CCOC(=O)c1cc(C)nn1-c1cc(Nc2c(C)c(-c3ccc(C#N)cc3)nn2CC2CC2)ncn1` [Example 258, ethyl 1-(6-{[3-(4-cyanophenyl)-1-(cyclopropylmethyl)-4-methyl-1H-pyrazol-5-yl]amino}pyrimidin-4-yl)-3-methyl-1H-pyrazole-5-carboxylate], the midpoint of inhibition, the IC50, lay at 2800 nM.

Regarding `Cc1cc(C)n(-c2cc(Nc3c(C)c(-c4ccc(Cl)cc4)nn3CC3CC3)ncn2)n1` [Example 312, N-[3-(4-chlorophenyl)-1-(cyclopropylmethyl)-4-methyl-1H-pyrazol-5-yl]-6-(3,5-dimethyl-1H-pyrazol-1-yl)pyrimidin-4-amine], half-maximal inhibition (IC50) was put at 10 nM.

`CCc1c(Nc2cc(-n3nc(C)cc3C)ncn2)nn(CCO)c1-c1ccc(F)cc1` [Example 111, 2-[3-{[6-(3,5-dimethyl-1H-pyrazol-1-yl)pyrimidin-4-yl]amino}-4-ethyl-5-(4-fluorophenyl)-1H-pyrazol-1-yl]ethanol]: half-maximal inhibition (IC50) required 360 nM.
